Reference: PMC10814857, “Functional Classification and Interaction Selectivity Landscape of the Human SH3 Domain Superfamily” (Cells, 2024)
Peptide text beside a SMILES is read from it.

Assays:
Assay in all cases: Fluorescence polarization SH3 domain-PRP binding
[1] = biological target: T1, ITSN1-4 SH3 domain (aa 1070-1138) (Homo sapiens, UniProt Q15811); conditions: FP, 0.2 µM fluorescein-labeled peptide, SH3 domain 0-200 µM, Tris/HCl pH 7.5, 25 °C, quadratic fit
T1 construct: 1070-1138; GST (N); made in house; host or cells: Escherichia coli CodonPlus, Rosetta, BL21(DE3)
T1 sequence (Q15811 1070-1138): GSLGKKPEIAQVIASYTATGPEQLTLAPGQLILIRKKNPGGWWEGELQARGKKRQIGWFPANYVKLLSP
Experimental: (§1) The interaction between fluorescein-labeled proline-rich peptides (0.2 µM) and increasing concentrations of SH3 domains (ranging from 0 to 200 µM) was measured in a buffer (containing 30 mM Tris/HCl (pH 7.5), 5 mM MgCl2, and 3 mM DTT at 25 °C) in a total volume of 200 µL using a Fluoromax 4 fluorimeter in polarization mode and a quartz glass fluorescence cuvette (Hellma Ultra-Micro Cuvette 105.250-QS, Thermo Fisher Scientific, Waltham, MA USA). Excitation was performed at 470 nm and emission was measured at 560 nm. Dissociation constants (Kd) were determined by fitting the concentration-dependent binding curve to a quadratic ligand binding equation.
(§2) Fluorescence polarization measurements were performed to determine the binding affinities of SH3 domain–PRP interaction pairs from the dot blot analysis. SH3 proteins were titrated at increasing concentrations against fluorescent PRPs, which were kept at a constant concentration of 0.2 µM. GRB2-2^W193K, which is defective in the binding of PRPs such as RP1, was used as a negative control as previously described. […] The resulting data (Figure S6) allowed the evaluation of equilibrium dissociation constants (Kd) for 45 interactions between the SH3 domains and the PRPs (Figure 2B; Table S6).
(§3) Figure S6. Interactions of the SH3 domains with fluorescent PRPs measured by fluorescence polarization.
(§4) Fluorescent peptides (0.2 µM) were titrated with increasing concentrations of the corresponding SH3 domains.
(§5) GRB2-2W193K, defective in the binding of PRPs such as RP1, was used as a negative control as previously described. The x-axis represents SH3 domain concentrations as GST fusion proteins in µM, while the y-axis represents fluorescence polarization. The equilibrium dissociation constants (Kd) for the respective measurements were determined by fitting the titration curves to a quadratic ligand-binding equation (solid lines). All Kd values are […]
(§6) Error bars are derived from the fitting errors.

[2] = biological target: T2, ITSN1-5 SH3 domain (aa 1155-1214) (Homo sapiens, UniProt Q15811); conditions: FP, 0.2 µM fluorescein-labeled peptide, SH3 domain 0-200 µM, Tris/HCl pH 7.5, 25 °C, quadratic fit
T2 construct: 1155-1214; GST (N); made in house; host or cells: Escherichia coli CodonPlus, Rosetta, BL21(DE3)
T2 sequence (Q15811 1155-1214): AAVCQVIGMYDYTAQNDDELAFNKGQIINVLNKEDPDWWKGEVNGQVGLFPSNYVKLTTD
Experimental: as §1, §2, §3, §4, §5, §6

[3] = biological target: T3, NCK1-1 SH3 domain (aa 2-61) (Homo sapiens, UniProt P16333); conditions: FP, 0.2 µM fluorescein-labeled peptide, SH3 domain 0-200 µM, Tris/HCl pH 7.5, 25 °C, quadratic fit, read-out: Kd
T3 construct: 2-61; GST (N); made in house; host or cells: Escherichia coli CodonPlus, Rosetta, BL21(DE3)
Experimental: as §1, §2, §3, §4, §5, §6

[4] = biological target: T4, NCK1-2 SH3 domain (aa 106-165) (Homo sapiens, UniProt P16333); conditions: FP, 0.2 µM fluorescein-labeled peptide, SH3 domain 0-200 µM, Tris/HCl pH 7.5, 25 °C, quadratic fit, read-out: Kd
T4 construct: 106-165; GST (N); made in house; host or cells: Escherichia coli CodonPlus, Rosetta, BL21(DE3)
Experimental: as §1, §2, §3, §4, §5, §6

[5] = biological target: T5, NCK1-3 SH3 domain (aa 190–252) (Homo sapiens, UniProt P16333); conditions: NCK1-3 (wt); FP, 0.2 µM fluorescein-labeled peptide, SH3 domain 0-200 µM, Tris/HCl pH 7.5, 25 °C, quadratic fit; read-out: Kd
T5 construct: 190–252; GST (N); made in house; host or cells: Escherichia coli CodonPlus, Rosetta, BL21(DE3)
Experimental: as §1, §2, §3, §4, §5, §6

NPHP1 SH3 domain = biological target: T6, NPHP1 SH3 domain (Homo sapiens, UniProt O15259); conditions: FP, 0.2 µM fluorescein-labeled peptide, SH3 domain 0-200 µM, Tris/HCl pH 7.5, 25 °C, quadratic fit
T6 construct: GST (N); made in house; host or cells: Escherichia coli CodonPlus, Rosetta, BL21(DE3)
T6 sequence (O15259 152-212 limits assumed): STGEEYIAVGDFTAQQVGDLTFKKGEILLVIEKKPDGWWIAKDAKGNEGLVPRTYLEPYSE
Experimental: as §1, §2, §3, §4, §5, §6

[6] = biological target: T7, RASA1 SH3 domain (aa 279–341) (Homo sapiens, UniProt P20936); conditions: FP, 0.2 µM fluorescein-labeled peptide, SH3 domain 0-200 µM, Tris/HCl pH 7.5, 25 °C, quadratic fit
T7 construct: 279–341; GST (N); made in house; host or cells: Escherichia coli CodonPlus, Rosetta, BL21(DE3)
T7 sequence (P20936 279-341): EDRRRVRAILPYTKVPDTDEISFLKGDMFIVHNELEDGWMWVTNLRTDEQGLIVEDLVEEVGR
Experimental: as §1, §2, §3, §4, §5, §6

[7] = biological target: T8, RIMBP3B-1 SH3 domain (aa 832-899) (Homo sapiens, UniProt A6NNM3); conditions: FP, 0.2 µM fluorescein-labeled peptide, SH3 domain 0-200 µM, Tris/HCl pH 7.5, 25 °C, quadratic fit
T8 construct: 832-899; GST (N); made in house; host or cells: Escherichia coli CodonPlus, Rosetta, BL21(DE3)
T8 sequence (A6NNM3 832-899): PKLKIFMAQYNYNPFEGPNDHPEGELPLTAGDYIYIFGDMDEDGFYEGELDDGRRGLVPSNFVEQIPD
Experimental: as §1, §2, §3, §4, §5, §6

[8] = biological target: T9, SH3PXD2A-1 SH3 domain (aa 166-225) (Homo sapiens, UniProt Q5TCZ1); conditions: FP, 0.2 µM fluorescein-labeled peptide, SH3 domain 0-200 µM, Tris/HCl pH 7.5, 25 °C, quadratic fit
T9 construct: 166-225; GST (N); made in house; host or cells: Escherichia coli CodonPlus, Rosetta, BL21(DE3)
T9 sequence (Q5TCZ1 166-225): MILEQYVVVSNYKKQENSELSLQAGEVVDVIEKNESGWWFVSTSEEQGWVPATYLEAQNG
Experimental: as §1, §2, §3, §4, §5, §6

[9] = biological target: T10, SNX9 SH3 domain (aa 1-62) (Homo sapiens, UniProt Q9Y5X1); conditions: FP, 0.2 µM fluorescein-labeled peptide, SH3 domain 0-200 µM, Tris/HCl pH 7.5, 25 °C, quadratic fit
T10 construct: 1-62; GST (N); made in house; host or cells: Escherichia coli CodonPlus, Rosetta, BL21(DE3)
Experimental: as §1, §2, §3, §4, §5, §6

[10] = biological target: T11, SORBS1-1 SH3 domain (aa 793-852) (Homo sapiens, UniProt Q9BX66); conditions: FP, 0.2 µM fluorescein-labeled peptide, SH3 domain 0-200 µM, Tris/HCl pH 7.5, 25 °C, quadratic fit
T11 construct: 793-852; GST (N); made in house; host or cells: Escherichia coli CodonPlus, Rosetta, BL21(DE3)
T11 sequence (Q9BX66 793-852): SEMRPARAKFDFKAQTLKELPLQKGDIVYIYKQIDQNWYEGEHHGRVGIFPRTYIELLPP
Experimental: as §1, §2, §3, §4, §5, §6

[11] = biological target: T12, SRC SH3 domain (aa 77-140) (Homo sapiens, UniProt P12931); conditions: FP, 0.2 µM fluorescein-labeled peptide, SH3 domain 0-200 µM, Tris/HCl pH 7.5, 25 °C, quadratic fit
T12 construct: 77-140; GST (N); made in house; host or cells: Escherichia coli CodonPlus, Rosetta, BL21(DE3)
Experimental: as §1, §2, §3, §4, §5, §6

T12 sequence (P12931 77-140 limits assumed): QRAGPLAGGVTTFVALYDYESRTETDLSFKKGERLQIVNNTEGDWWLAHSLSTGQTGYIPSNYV
T10 sequence (Q9Y5X1 1-62): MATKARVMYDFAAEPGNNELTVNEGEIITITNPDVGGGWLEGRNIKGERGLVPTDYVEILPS

Kd [1] [µM] | Kd [2] [µM] | Kd [3] [µM] | Kd [4] [µM] | Kd [5] [µM] | Kd (NPHP1 SH3 domain) [µM] | Kd [6] [µM] | Kd [7] [µM] | Kd [8] [µM] | Kd [9] [µM] | Kd [10] [µM] | Kd [11] [µM] | Structure (SMILES)
> 200 | 23 | > 200 | > 200 | > 200 | > 200 | > 200 | > 200 | > 200 | > 200 | > 200 | > 200 | CC(C)C[C@H](NC(=O)[C@@H]1CCCN1C(=O)[C@@H](NC(=O)[C@H](CCCNC(=N)N)NC(=O)[C@@H]1CCCN1C(=O)[C@H](CO)NC(=O)[C@H](CC(N)=O)NC(=O)[C@@H]1CCCN1C(=O)[C@H](C)NC(=O)[C@@H](N)CO)[C@@H](C)O)C(=O)N[C@H](C(=O)N1CCC[C@H]1C(=O)N1CCC[C@H]1C(=O)N1CCC[C@H]1C(=O)N[C@@H](C)C(=O)N[C@@H](CO)C(=O)O)[C@@H](C)O [Peptide P1] (H-SAPNSPRTPLTPPPAS-OH)
> 200 | > 200 | > 200 | > 200 | > 200 | > 200 | > 200 | 21 | 44 | > 200 | > 200 | > 200 | CC(C)C[C@H](NC(=O)[C@@H](NC(=O)[C@@H](N)C(C)C)[C@@H](C)O)C(=O)N1CCC[C@H]1C(=O)N[C@@H](Cc1c[nH]cn1)C(=O)NCC(=O)N1CCC[C@H]1C(=O)N[C@@H](CCCNC(=N)N)C(=O)N[C@@H](CO)C(=O)N[C@@H](C)C(=O)O [Peptide P2] (H-VTLPHGPRSA-OH)
> 200 | > 200 | > 200 | > 200 | > 200 | > 200 | > 200 | > 200 | 18 | > 200 | > 200 | 2 | CC[C@H](C)[C@H](NC(=O)[C@H](CCCCN)NC(=O)[C@H](CO)NC(=O)[C@@H]1CCCN1C(=O)[C@H](CO)NC(=O)[C@H](CO)NC(=O)[C@H](CCC(=O)O)NC(=O)[C@H](C)NC(=O)[C@@H]1CCCN1C(=O)[C@H](C)NC(=O)[C@H](CO)NC(=O)[C@H](CCC(=O)O)NC(=O)[C@@H]1CCCN1C(=O)[C@H](CCCNC(=N)N)NC(=O)[C@H](CCCNC(=N)N)NC(=O)[C@H](CCCNC(=N)N)NC(=O)[C@@H]1CCCN1C(=O)[C@@H]1CCCN1C(=O)[C@@H](NC(=O)[C@@H]1CCCN1C(=O)[C@@H]1CCCN1C(=O)[C@@H]1CCCN1C(=O)[C@@H](NC(=O)[C@@H]1CCCN1C(=O)[C@@H](NC(=O)[C@@H](N)CCC(=O)O)C(C)C)C(C)C)C(C)C)C(=O)O [Peptide P3] (H-EVPVPPPVPPRRRPESAPAESSPSKI-OH)
> 200 | 12 | > 200 | > 200 | > 200 | > 200 | > 200 | > 200 | > 200 | > 200 | > 200 | > 200 | CC[C@H](C)[C@H](NC(=O)[C@H](C)NC(=O)[C@@H]1CCCN1C(=O)[C@@H]1CCCN1C(=O)[C@H](CO)NC(=O)[C@H](CC(=O)O)NC(=O)[C@@H](N)CC(C)C)C(=O)N1CCC[C@H]1C(=O)N1CCC[C@H]1C(=O)N[C@@H](CCCNC(=N)N)C(=O)N[C@@H](CCC(N)=O)C(=O)N1CCC[C@H]1C(=O)N[C@H](C(=O)N[C@@H](CO)C(=O)N[C@@H](CCCCN)C(=O)O)[C@@H](C)O [Peptide P4] (H-LDSPPAIPPRQPTSK-OH)
> 200 | > 200 | > 200 | > 200 | > 200 | > 200 | > 200 | > 200 | > 200 | > 200 | > 200 | > 200 | CC[C@H](C)[C@H](N)C(=O)N[C@@H](CO)C(=O)N[C@@H](CC(=O)O)C(=O)N1CCC[C@H]1C(=O)N1CCC[C@H]1C(=O)N[C@@H](CCC(=O)O)C(=O)N[C@@H](CO)C(=O)N1CCC[C@H]1C(=O)N1CCC[C@H]1C(=O)N[C@@H](CC(C)C)C(=O)N[C@@H](CC(C)C)C(=O)N1CCC[C@H]1C(=O)N1CCC[C@H]1C(=O)N[C@@H](CCCNC(=N)N)C(=O)N[C@@H](CCC(=O)O)C(=O)N1CCC[C@H]1C(=O)N[C@H](C(=O)N[C@@H](CCCNC(=N)N)C(=O)N[C@H](C(=O)N1CCC[C@H]1C(=O)N[C@@H](CC(=O)O)C(=O)N[C@H](C(=O)O)C(C)C)[C@@H](C)O)C(C)C [Peptide P5] (H-ISDPPESPPLLPPREPVRTPDV-OH)
> 200 | > 200 | > 200 | > 200 | > 200 | > 200 | > 200 | > 200 | > 200 | > 200 | > 200 | > 200 | CC(C)C[C@H](NC(=O)[C@H](Cc1c[nH]cn1)NC(=O)[C@H](CC(C)C)NC(=O)[C@@H]1CCCN1C(=O)[C@H](CO)NC(=O)[C@H](CO)NC(=O)[C@@H](N)CO)C(=O)N[C@@H](CCC(N)=O)C(=O)N1CCC[C@H]1C(=O)N1CCC[C@H]1C(=O)N1CCC[C@H]1C(=O)N[C@@H](CC(C)C)C(=O)NCC(=O)N[C@@H](CCCCN)C(=O)N[C@@H](CCCCN)C(=O)O [Peptide P6] (H-SSSPLHLQPPPLGKK-OH; N-terminus and C-terminus assumed)
